The values below come from patent publication US20150141411A1, “SUBSTITUTED 3,4-DIHYDRO-2H-PYRIDO[1,2-A]PYRAZINE-1,6-DIONE DERIVATIVES USEFUL FOR THE TREATMENT OF (INTER ALIA) ALZHEIMER'S DISEASE” (Janssen Pharmaceuticals, Inc., priority 2012, published 2015).

SMILES strings stand for the structures. Structures can show the parent of a compound that is named as a salt.

Series [1] has as its target T1, γ-secretase (Homo sapiens, UniProt P49768).
T1 construct: endogenous in cells; host or cells: SKNBE2 human neuroblastoma cells (carrying hAPP 695 wild type as substrate)
Nature of the series: Screening for γ-secretase-modulating activity: Aβ42 in supernatant of SKNBE2 cells carrying hAPP 695 wild type (Alphalisa). In kind it is cell-based. The conditions noted are these: SKNBE2 human neuroblastoma cells carrying hAPP 695 wild type, overnight incubation, Aβ42 in cell supernatant. The procedure, abridged:
(§1)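 SKNBE2 neuroblastoma cells expressing wild-type hAPP 695 plated at 10^4 cells/well in Ultraculture with test compound, incubated overnight at 37° C. Aβ42 (C-terminal/N-terminal antibody pair) and Aβtotal (N-terminal/4G8 pair) in supernatant quantified by AlphaLISA. IC50 from 4-parameter fit of percent of compound-free control.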
(In general: Bead proximity is the source of the signal in Alpha formats.)

Series [2] has as its target T1, γ-secretase. Briefly: Screening for γ-secretase-modulating activity: Aβtotal in supernatant of SKNBE2 cells carrying hAPP 695 wild type (Alphalisa). The series is classed as cell-based. The conditions noted are these: SKNBE2 human neuroblastoma cells carrying hAPP 695 wild type, overnight incubation, Aβtotal in cell supernatant. The procedure, abridged:
as §1

The term IC50 denotes the point on the concentration scale where inhibition reaches its midpoint. By melting point is commonly meant the temperature of the solid-liquid transition. `COc1ccc(Cl)cc1CCN1C(=O)c2ccc(-n3cnc(C)c3)c(=O)n2C[C@H]1C` [compound 233] displayed a melting point of 193 °C. In series [1], this compound returned an IC50 of 260 nM. Also, the IC50 in series [2] was more than 10000 nM.
In the case of `Cc1cn(-c2ccc3n(c2=O)CCN(C(C)c2ccc(Cl)c(Cl)c2)C3=O)cn1` (single isomer, unassigned) [9a], the melting point came out at 206.8 °C. For the same compound, the IC50 in series [1] came out at 4470 nM. In series [2], the IC50 was more than 10000 nM.
`Cc1cn(-c2ccc3n(c2=O)CCN(Cc2cccc(Cl)c2Cl)C3=O)cn1` [compound 36] yielded a melting point of 224.9 °C. Moreover, in series [1], the midpoint of inhibition, the IC50, lay at 510 nM. This compound showed an IC50 in series [2] of more than 10000 nM.
The matching figures for `Cc1cn(-c2ccc3n(c2=O)C[C@@H](C)N(CC2(c4ccccc4C)CC2)C3=O)cn1` [compound 20]: 199.8 °C, 1550 nM and more than 10000 nM.
The matching figures for `Cc1cn(-c2ccc3n(c2=O)CCN(Cc2ccc(Cl)c(Cl)c2)C3=O)cn1` [compound 38]: 190.8 °C, 330 nM and 3630 nM.
As for `Cc1cn(-c2ccc3n(c2=O)CCN(Cc2ccc4c(c2)OCCCO4)C3=O)cn1` [compound 93], the melting point turned out to be 192.2 °C. Moreover, the IC50 in series [1] was 6760 nM. The compound further displayed an IC50 in series [2] of more than 10000 nM.
On to `Cc1cn(-c2ccc3n(c2=O)CCN(Cc2cccc(N4CCCCC4)c2)C3=O)cn1` [compound 96], for which the melting point was 163.6 °C. For the same compound, the IC50 in series [1] is 760 nM. For the same compound, the IC50 in series [2] was more than 10000 nM.
In the same order, the values of `Cc1cn(-c2ccc3n(c2=O)C[C@@H](C)N(Cc2cccc(N4CCCCC4)c2)C3=O)cn1` [compound 84] are 108.2 °C, 230 nM and more than 10000 nM.
Compound `COc1cccc(CN2CCn3c(ccc(-n4cnc(C)n4)c3=O)C2=O)c1` [compound 119] gave a melting point of 151.2 °C. Further, in series [1], the IC50 was more than 10000 nM. For the same compound, the IC50 in series [2] is more than 10000 nM.
For `Cc1cn(-c2ccc3n(c2=O)CCN(Cc2cccc(N4CCOCC4)c2)C3=O)cn1` [compound 95], the melting point turned out to be 181.6 °C. Further, half-maximal inhibition in series [1] (IC50) was put at 7590 nM. This compound also showed a half-maximal inhibitory concentration (IC50) in series [2] of more than 10000 nM.
In the same order, the values of `Cc1cn(-c2ccc3n(c2=O)C[C@@H](C)N(Cc2ccccc2C)C3=O)cn1` [compound 21] are 163 °C, 1950 nM and more than 10000 nM.
On to `Cc1cn(-c2ccc3n(c2=O)CCN(Cc2cn(C)c4c(Cl)cc(Cl)cc24)C3=O)cn1` [compound 259], for which the melting point was determined as 230 °C. It took 20 nM to reach half-maximal inhibition in series [1] (IC50). In series [2], this compound registered an IC50 of 6000 nM.
In the same order, the values of `Cc1cn(-c2ccc3n(c2=O)CCN(Cc2cc(OC(C)C)cc(C(F)(F)F)c2)C3=O)cn1` [compound 160] are 171.7 °C, 190 nM and more than 10000 nM.
`CCn1cc(CN2C(=O)c3ccc(-n4cnc(C)c4)c(=O)n3C[C@H]2C)c2cc(OC)c(Cl)cc21` [compound 251] gave a melting point of 150 °C. In series [1], this compound gave an IC50 of 20 nM. For the same compound, half-maximal inhibition in series [2] (IC50) required 6000 nM.
In the same order, the values of `Cc1cn(-c2ccc3n(c2=O)C[C@@H](C)N(Cc2ccc4scc(Br)c4c2)C3=O)cn1` [compound 115] are 101.4 °C, 140 nM and more than 10000 nM.
The matching figures for `Cc1cn(-c2ccc3n(c2=O)CCN(C2CCCc4ccc(C(F)(F)F)cc42)C3=O)cn1` (stereo not shown) [compound 106]: 189.4 °C, 720 nM and more than 10000 nM.
In the same order, the values of `Cc1cn(-c2ccc3n(c2=O)CCCN(Cc2ccc(Cl)c(Cl)c2)C3=O)cn1` [compound 121] are 173.4 °C, 380 nM and more than 10000 nM.
As to `Cc1cn(-c2ccc3n(c2=O)CCN(Cc2cccc(OC(F)(F)F)c2)C3=O)cn1` [compound 74], the melting point came out at 163.4 °C. Besides, the IC50 in series [1] amounted to 380 nM. The IC50 in series [2] was more than 10000 nM.
The compound `Cc1cncn1-c1ccc2n(c1=O)CCN(Cc1ccccc1)C2=O` [compound 89] showed a melting point of 146.5 °C. Besides, in series [1], the half-inhibitory concentration (IC50) was more than 10000 nM. Further, the IC50 in series [2] is more than 10000 nM.
The compound `Cc1cn(-c2ccc3n(c2=O)C[C@@H](C)N(CCc2cc(C(F)(F)F)ccc2F)C3=O)cn1` [compound 232] showed a melting point of 148 °C. Besides, in series [1], half-maximal inhibition (IC50) was put at 210 nM. The IC50 in series [2] is more than 10000 nM.
As to `Cc1cn(-c2ccc3n(c2=O)CCN(Cc2c[nH]c4c(Cl)cc(Cl)cc24)C3=O)cn1` [compound 260], the melting point was determined as 208 °C. In series [1], inhibition was half-maximal at 30 nM (IC50).
In turn, `Cc1cn(-c2ccc3n(c2=O)CCN(C2CC2c2ccc(Cl)cc2)C3=O)cn1` (stereo not shown) [compound 30] had a melting point of 168.5 °C. In series [1], this compound had an IC50 of 2040 nM. Besides, in series [2], the IC50 was more than 10000 nM.
In the same order, the values of `Cc1cn(-c2ccc3n(c2=O)CCN(Cc2cccc(-c4ccc(F)cc4C(F)(F)F)c2)C3=O)cn1` [compound 90] are 138 to 143 °C, 70 nM and more than 10000 nM.
As to `Cc1cn(-c2ccc3n(c2=O)CCN(c2cccc(C(F)(F)F)c2C)C3=O)cn1` [compound 57], the melting point stood at 248.6 °C. This compound also came in with an IC50 in series [1] of more than 10000 nM. The compound further showed an IC50 in series [2] of more than 10000 nM.
`Cc1cn(-c2ccc3n(c2=O)CCN(Cc2cccc(C(F)(F)F)c2F)C3=O)cn1` [compound 56] came in with a melting point of 197.6 °C. Besides, in series [1], half-maximal inhibition (IC50) required 1700 nM. Further, the IC50 in series [2] is more than 10000 nM.
In the same order, the values of `Cc1cn(-c2ccc3n(c2=O)CCN(C(C)c2cccc(C(F)(F)F)c2)C3=O)cn1` (single isomer, unassigned) [11a] are 181.1 °C, 660 nM and more than 10000 nM.
The matching figures for `Cc1cn(-c2ccc3n(c2=O)CCN(Cc2cccc(C(F)(F)F)c2)C3=O)cn1` [compound 42]: 183.4 °C, 740 nM and more than 10000 nM.
In the same order, the values of `COc1ccc(CN2CCn3c(ccc(-n4cnc(C)c4)c3=O)C2=O)cc1C(F)(F)F` [compound 69] are 177 °C, 1020 nM and more than 10000 nM.
The compound `Cc1cn(-c2ccc3n(c2=O)CCN(Cc2cc(C(F)(F)F)cc(C(F)(F)F)c2)C3=O)cn1` [compound 53] yielded a melting point of 219 °C. The same compound showed an IC50 in series [1] of 210 nM. The same compound showed an IC50 in series [2] of more than 10000 nM.
As for `Cc1cn(-c2ccc3n(c2=O)C[C@@H](C)N(Cc2ccc(C)c(-n4cccn4)c2)C3=O)cn1` (as salt: HCl) [compound 114], the melting point was 126.9 °C.
Regarding `CCC(c1cc(OC)cc(C(F)(F)F)c1)N1C(=O)c2ccc(-n3cnc(C)c3)c(=O)n2C[C@H]1C` (single isomer, unassigned) (as salt: HCl) [compound 142], the melting point was found to be 141.4 °C.
Regarding `Cc1cn(-c2ccc3n(c2=O)C[C@@H](C)N(Cc2cc(Br)cc(C(F)(F)F)c2)C3=O)cn1` (as salt: HCl) [compound 145], the melting point came to 204.5 °C.
For the compound `Cc1cn(-c2ccc3n(c2=O)C[C@@H](C)N(Cc2cc(C(F)(F)F)ccc2C)C3=O)cn1` (as salt: HCl) [compound 72], the melting point stood at 208.3 °C.
With `CCOc1cc(C(C)N2C(=O)c3ccc(-n4cnc(C)c4)c(=O)n3C[C@H]2C)cc(C(F)(F)F)c1` (single isomer, unassigned) (as salt: HCl) [compound 143], the melting point came to 229.3 °C.
`Cc1cn(-c2ccc3n(c2=O)C[C@@H](C)N(Cc2cc(N4CCCC4)ccc2Cl)C3=O)cn1` (as salt: HCl) [compound 82]: the melting point was determined as 233.6 °C.
Still for that read-out and setting: for `CCOc1cc(C(C)N2C(=O)c3ccc(-n4cnc(C)c4)c(=O)n3C[C@H]2C)cc(C(F)(F)F)c1` (single isomer, unassigned) (as salt: HCl) [compound 144] the value was 194.4 °C.
As to `Cc1cn(-c2ccc3n(c2=O)C[C@@H](C)N(Cc2cc(OCC(F)(F)F)cc(C(F)(F)F)c2)C3=O)cn1` (as salt: HCl) [compound 166], the melting point came to 137.5 °C.
Same read-out and setting: the figure for `Cc1cn(-c2ccc3n(c2=O)C[C@@H](C)N(Cc2cc(CC(F)(F)F)cc(C(F)(F)F)c2)C3=O)cn1` (as salt: HCl) [compound 134] is 136 °C; for `Cc1cn(-c2ccc3n(c2=O)C[C@@H](C)N(Cc2cc(OC(F)(F)F)cc(C(F)(F)F)c2)C3=O)cn1` (as salt: HCl) [compound 140] it is 115.2 °C; for `Cc1cn(-c2ccc3n(c2=O)C[C@@H](C)N(C(C)c2cc(CC4CC4)cc(C(F)(F)F)c2)C3=O)cn1` (single isomer, unassigned) (as salt: HCl) [compound 135] it is 213.2 °C.
Turning to `Cc1cn(-c2ccc3n(c2=O)C[C@@H](C)N(Cc2ccc(C(F)(F)F)c(N4CCCCC4)c2)C3=O)cn1` (as salt: HCl) [compound 171], the melting point was 130.6 °C.
In the case of `Cc1cn(-c2ccc3n(c2=O)C[C@@H](C)N(Cc2cc(N4CCC(C(F)(F)F)CC4)ccc2Cl)C3=O)cn1` (as salt: HCl) [compound 81], the melting point turned out to be 160.6 °C.
Same read-out and setting: for `COc1cc(C(C)N2C(=O)c3ccc(-n4cnc(C)c4)c(=O)n3C[C@H]2C)cc(C(F)(F)F)c1` (single isomer, unassigned) (as salt: HCl) [compound 149] the value was 122 °C.
